ChEMBL document CHEMBL4402608 (J Med Chem, 2020)

Key:
[1] = Displacement of [3H]-PK11195 from rat brain GABA PBR measured after 90 mins by microbeta scintillation counting method
GABA PBR = test: Displacement of [3H]-PK11195 from rat brain GABA PBR at 10 uM measured after 90 mins by microbeta scintillation counting method relative to control; conditions: probe [3H]-PK11195
D(2) dopamine receptor [2] = molecular target: T1, D(2) dopamine receptor (Homo sapiens, UniProt P14416); test: Agonist activity at human D2RS expressed in CHOK1/human U2OS cells assessed as induction of beta-arrestin recruitment at 10 uM measured after 90 mins by beta-galactosidase based PathHunter assay; type: cell-based
T1 sequence (P14416 whole entry): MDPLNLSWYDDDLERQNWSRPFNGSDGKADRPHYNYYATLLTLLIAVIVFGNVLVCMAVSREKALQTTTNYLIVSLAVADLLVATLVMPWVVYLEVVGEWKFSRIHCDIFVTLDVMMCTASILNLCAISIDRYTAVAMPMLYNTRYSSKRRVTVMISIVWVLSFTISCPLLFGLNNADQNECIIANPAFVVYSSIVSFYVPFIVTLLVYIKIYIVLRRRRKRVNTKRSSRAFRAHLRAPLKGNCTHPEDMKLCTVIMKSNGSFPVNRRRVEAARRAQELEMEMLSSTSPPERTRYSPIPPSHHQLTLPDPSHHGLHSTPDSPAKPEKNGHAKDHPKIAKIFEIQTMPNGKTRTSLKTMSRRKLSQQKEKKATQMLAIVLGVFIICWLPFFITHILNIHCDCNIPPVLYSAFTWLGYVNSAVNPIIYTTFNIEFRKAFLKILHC

[3] = Displacement of [3H]-Flunitrazepam from rat brain GABA(A)/BzR site measured after 90 mins by microbeta scintillation counting method
D(4) dopamine receptor [4] = molecular target: T2, D(4) dopamine receptor (Homo sapiens, UniProt P21917); test: Displacement of [3H]-N-methylspiperone from recombinant human D4 receptor stably expressed in HEK cell membranes measured after 90 mins by microbeta scintillation counting method
T2 sequence (P21917 whole entry): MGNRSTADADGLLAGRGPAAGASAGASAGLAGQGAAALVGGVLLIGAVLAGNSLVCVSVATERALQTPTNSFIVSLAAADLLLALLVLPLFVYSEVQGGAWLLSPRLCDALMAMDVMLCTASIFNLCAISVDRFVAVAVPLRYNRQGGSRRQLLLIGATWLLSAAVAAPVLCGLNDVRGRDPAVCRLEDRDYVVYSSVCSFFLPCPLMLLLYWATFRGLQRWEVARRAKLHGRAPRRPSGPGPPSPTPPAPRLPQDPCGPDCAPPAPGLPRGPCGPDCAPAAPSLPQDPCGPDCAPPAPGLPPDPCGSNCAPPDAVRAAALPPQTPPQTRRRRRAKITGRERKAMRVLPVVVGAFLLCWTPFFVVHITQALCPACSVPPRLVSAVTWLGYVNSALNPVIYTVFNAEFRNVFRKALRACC

[5] = molecular target: Atypical chemokine receptor 3 (Homo sapiens, UniProt P25106); test: Agonist activity at human PK1-tgged CXCR7 expressed in CHOK1 cells assessed as induction of beta-arrestin recruitment at 10 uM measured after 90 mins by beta-galactosidase based PathHunter assay; type: cell-based
Atypical chemokine receptor 3, sequence (P25106 whole entry): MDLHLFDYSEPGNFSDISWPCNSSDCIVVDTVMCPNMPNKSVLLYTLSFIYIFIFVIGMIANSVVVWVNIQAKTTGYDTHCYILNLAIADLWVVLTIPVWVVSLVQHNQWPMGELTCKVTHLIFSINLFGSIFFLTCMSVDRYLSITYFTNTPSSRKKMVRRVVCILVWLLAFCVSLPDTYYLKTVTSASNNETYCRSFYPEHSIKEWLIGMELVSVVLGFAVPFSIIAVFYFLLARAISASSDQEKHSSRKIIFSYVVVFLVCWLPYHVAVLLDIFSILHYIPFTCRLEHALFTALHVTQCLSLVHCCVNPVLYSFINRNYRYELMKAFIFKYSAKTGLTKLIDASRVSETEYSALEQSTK

D(4) dopamine receptor [6] = molecular target: T2, D(4) dopamine receptor; test: Agonist activity at Gi/Go-coupled human D4R expressed in CHOK1 cells assessed as induction of beta-arrestin recruitment at 10 uM measured after 90 mins by beta-galactosidase based PathHunter assay; type: cell-based
GABA(A)/BzR site = test: Displacement of [3H]-Flunitrazepam from rat brain GABA(A)/BzR site at 10 uM measured after 90 mins by microbeta scintillation counting method relative to control; conditions: probe [3H]-Flunitrazepam
D(2) dopamine receptor [7] = molecular target: T1, D(2) dopamine receptor; test: Agonist activity at human D2RL expressed in CHOK1/human U2OS cells assessed as induction of beta-arrestin recruitment at 10 uM measured after 90 mins by beta-galactosidase based PathHunter assay; type: cell-based
[8] = molecular target: beta3 adrenergic receptor (Homo sapiens, UniProt P13945)
beta3 adrenergic receptor, sequence (P13945 whole entry): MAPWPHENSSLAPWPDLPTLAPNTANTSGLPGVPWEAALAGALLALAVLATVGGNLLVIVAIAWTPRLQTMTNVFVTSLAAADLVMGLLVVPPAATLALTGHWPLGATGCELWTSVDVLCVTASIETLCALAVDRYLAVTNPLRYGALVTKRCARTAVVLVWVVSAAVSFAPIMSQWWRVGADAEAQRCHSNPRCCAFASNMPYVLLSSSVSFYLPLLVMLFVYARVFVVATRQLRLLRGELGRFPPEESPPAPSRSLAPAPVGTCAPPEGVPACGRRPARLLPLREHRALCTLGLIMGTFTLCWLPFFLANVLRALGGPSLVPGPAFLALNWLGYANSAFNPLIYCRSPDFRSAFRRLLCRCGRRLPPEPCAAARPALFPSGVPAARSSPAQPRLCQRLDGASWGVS

[9] = molecular target: 5-hydroxytryptamine receptor 5A (Homo sapiens, UniProt P47898)
[10] = molecular target: 5-hydroxytryptamine receptor 1E (Homo sapiens, UniProt P28566)
5-hydroxytryptamine receptor 1E, sequence (P28566 whole entry): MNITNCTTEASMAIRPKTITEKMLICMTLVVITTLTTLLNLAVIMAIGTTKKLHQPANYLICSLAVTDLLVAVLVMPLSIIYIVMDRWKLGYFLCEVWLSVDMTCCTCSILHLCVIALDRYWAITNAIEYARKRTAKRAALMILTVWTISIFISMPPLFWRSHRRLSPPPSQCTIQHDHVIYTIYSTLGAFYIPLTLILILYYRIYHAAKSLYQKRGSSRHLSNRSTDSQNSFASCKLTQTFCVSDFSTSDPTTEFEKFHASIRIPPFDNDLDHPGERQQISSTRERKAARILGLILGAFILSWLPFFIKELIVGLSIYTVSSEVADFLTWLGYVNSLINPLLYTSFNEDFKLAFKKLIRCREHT

[11] = molecular target: T3, Alpha-1A adrenergic receptor (Homo sapiens, UniProt P35348)
T3 sequence (P35348 whole entry): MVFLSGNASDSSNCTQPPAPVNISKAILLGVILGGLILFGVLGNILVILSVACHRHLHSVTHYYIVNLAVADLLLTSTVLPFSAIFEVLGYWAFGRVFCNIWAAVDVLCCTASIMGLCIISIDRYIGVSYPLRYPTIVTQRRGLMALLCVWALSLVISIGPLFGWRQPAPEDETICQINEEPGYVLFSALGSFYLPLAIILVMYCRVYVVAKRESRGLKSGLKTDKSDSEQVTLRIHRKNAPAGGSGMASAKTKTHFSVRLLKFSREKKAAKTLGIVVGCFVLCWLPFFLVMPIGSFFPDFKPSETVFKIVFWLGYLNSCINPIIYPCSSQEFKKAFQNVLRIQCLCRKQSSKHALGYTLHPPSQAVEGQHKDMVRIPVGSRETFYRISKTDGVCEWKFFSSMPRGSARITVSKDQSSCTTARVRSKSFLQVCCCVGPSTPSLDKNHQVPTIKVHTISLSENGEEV

[12] = molecular target: 5-hydroxytryptamine receptor 1D (Homo sapiens, UniProt P28221)
5-hydroxytryptamine receptor 1D, sequence (P28221 whole entry): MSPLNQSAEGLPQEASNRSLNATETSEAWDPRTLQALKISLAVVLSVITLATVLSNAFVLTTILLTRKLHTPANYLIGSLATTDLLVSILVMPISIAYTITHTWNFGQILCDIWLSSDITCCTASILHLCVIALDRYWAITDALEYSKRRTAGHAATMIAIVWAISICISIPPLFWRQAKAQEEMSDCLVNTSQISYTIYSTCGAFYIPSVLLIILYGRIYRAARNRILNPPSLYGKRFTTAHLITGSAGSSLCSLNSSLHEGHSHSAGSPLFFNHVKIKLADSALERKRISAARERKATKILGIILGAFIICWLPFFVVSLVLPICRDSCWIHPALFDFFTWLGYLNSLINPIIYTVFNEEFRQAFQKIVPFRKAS

[13] = molecular target: T4, Beta-2 adrenergic receptor (Homo sapiens, UniProt P07550); test: Displacement of [3H]-CGP12177 from recombinant human beta2 adrenergic receptor expressed in HEK Flp-In cell membranes measured after 90 mins by microbeta scintillation counting method
T4 sequence (P07550 whole entry): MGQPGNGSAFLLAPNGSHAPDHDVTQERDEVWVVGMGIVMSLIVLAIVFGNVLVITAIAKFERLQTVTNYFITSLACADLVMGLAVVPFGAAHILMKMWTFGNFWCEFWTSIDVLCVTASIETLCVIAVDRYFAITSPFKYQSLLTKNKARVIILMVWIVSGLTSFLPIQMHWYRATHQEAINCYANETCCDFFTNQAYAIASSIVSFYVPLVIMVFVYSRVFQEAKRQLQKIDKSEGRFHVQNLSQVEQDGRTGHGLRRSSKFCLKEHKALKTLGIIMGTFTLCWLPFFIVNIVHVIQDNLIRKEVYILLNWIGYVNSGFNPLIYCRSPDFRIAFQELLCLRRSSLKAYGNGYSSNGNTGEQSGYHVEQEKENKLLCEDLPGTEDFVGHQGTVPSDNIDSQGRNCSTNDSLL

[14] = molecular target: 5-hydroxytryptamine receptor 6 (Homo sapiens, UniProt P50406)
5-hydroxytryptamine receptor 6, sequence (P50406 whole entry): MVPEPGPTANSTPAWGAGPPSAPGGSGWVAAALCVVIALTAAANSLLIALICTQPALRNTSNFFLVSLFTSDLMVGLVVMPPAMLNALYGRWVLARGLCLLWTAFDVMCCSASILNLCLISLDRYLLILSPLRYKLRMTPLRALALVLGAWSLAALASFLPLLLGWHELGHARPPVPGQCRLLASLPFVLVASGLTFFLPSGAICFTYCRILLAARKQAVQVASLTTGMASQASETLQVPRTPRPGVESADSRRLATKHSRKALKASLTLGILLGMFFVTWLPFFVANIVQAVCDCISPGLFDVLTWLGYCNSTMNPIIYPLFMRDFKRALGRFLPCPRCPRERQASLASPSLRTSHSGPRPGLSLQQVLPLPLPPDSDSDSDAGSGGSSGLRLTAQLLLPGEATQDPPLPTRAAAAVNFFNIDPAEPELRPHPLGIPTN

[15] = molecular target: 5-hydroxytryptamine receptor 1B (Homo sapiens, UniProt P28222)
5-hydroxytryptamine receptor 1B, sequence (P28222 whole entry): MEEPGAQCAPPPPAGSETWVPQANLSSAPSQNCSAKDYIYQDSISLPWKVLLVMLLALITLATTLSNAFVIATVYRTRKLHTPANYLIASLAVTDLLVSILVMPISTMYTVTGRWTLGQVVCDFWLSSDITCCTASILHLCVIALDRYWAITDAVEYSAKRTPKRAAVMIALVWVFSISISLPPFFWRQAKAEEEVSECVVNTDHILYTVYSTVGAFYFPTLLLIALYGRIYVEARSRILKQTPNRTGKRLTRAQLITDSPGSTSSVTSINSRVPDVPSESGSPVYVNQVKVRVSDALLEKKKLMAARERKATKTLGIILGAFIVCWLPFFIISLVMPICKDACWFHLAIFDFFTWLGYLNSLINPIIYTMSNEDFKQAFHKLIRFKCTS

[16] = molecular target: Sigma non-opioid intracellular receptor 1 (Homo sapiens, UniProt Q99720); test: Displacement of [3H]-pentazocine from sigma1 receptor (unknown origin) after 90 mins by microbeta scintillation counting method
Sigma non-opioid intracellular receptor 1, sequence (Q99720 whole entry): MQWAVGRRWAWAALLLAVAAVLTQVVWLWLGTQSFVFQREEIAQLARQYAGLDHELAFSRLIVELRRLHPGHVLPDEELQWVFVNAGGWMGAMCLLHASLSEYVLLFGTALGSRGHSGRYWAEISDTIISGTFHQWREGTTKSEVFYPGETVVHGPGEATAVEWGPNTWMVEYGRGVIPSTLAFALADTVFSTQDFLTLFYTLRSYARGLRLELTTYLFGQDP

[17] = molecular target: T5, Alpha-2C adrenergic receptor (Homo sapiens, UniProt P18825)
T5 sequence (P18825 whole entry): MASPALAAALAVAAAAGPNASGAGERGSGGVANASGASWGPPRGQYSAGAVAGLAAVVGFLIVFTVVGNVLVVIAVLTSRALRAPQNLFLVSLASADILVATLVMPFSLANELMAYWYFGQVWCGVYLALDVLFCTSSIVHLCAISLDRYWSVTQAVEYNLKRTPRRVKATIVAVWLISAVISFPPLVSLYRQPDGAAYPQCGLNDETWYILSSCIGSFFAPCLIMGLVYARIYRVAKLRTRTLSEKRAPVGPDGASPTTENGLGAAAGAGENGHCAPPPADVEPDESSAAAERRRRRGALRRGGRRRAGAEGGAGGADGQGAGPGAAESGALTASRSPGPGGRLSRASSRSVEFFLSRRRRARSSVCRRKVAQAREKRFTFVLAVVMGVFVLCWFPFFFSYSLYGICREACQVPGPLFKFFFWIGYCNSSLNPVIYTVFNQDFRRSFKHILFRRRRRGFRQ

[18] = molecular target: Muscarinic acetylcholine receptor M2 (Homo sapiens, UniProt P08172)
[19] = molecular target: 5-hydroxytryptamine receptor 3A (Homo sapiens, UniProt P46098)
[20] = molecular target: Muscarinic acetylcholine receptor M1 (Homo sapiens, UniProt P11229)
D(1B) dopamine receptor = D(1B) dopamine receptor (Homo sapiens, UniProt P21918)
[21] = molecular target: T4, Beta-2 adrenergic receptor; test: Displacement of [3H]-CGP12177 from recombinant human beta2 adrenergic receptor expressed in HEK Flp-In cell membranes at 10 uM measured after 90 mins by microbeta scintillation counting method relative to control; conditions: probe [3H]-CGP12177
[22] = molecular target: Delta-type opioid receptor (Homo sapiens, UniProt P41143)
Delta-type opioid receptor, sequence (P41143 whole entry): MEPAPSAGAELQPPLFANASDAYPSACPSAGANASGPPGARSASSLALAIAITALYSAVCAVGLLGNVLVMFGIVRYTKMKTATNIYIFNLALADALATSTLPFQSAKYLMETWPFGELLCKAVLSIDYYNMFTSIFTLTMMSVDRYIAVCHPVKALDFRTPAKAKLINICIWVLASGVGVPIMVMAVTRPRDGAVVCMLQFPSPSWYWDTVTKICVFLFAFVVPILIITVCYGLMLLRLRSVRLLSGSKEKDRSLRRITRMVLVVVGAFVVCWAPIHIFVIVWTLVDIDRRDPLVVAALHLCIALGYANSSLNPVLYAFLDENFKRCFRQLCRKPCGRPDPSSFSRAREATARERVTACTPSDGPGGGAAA

[23] = molecular target: Muscarinic acetylcholine receptor M3 (Homo sapiens, UniProt P20309)
Muscarinic acetylcholine receptor M3, sequence (P20309 whole entry): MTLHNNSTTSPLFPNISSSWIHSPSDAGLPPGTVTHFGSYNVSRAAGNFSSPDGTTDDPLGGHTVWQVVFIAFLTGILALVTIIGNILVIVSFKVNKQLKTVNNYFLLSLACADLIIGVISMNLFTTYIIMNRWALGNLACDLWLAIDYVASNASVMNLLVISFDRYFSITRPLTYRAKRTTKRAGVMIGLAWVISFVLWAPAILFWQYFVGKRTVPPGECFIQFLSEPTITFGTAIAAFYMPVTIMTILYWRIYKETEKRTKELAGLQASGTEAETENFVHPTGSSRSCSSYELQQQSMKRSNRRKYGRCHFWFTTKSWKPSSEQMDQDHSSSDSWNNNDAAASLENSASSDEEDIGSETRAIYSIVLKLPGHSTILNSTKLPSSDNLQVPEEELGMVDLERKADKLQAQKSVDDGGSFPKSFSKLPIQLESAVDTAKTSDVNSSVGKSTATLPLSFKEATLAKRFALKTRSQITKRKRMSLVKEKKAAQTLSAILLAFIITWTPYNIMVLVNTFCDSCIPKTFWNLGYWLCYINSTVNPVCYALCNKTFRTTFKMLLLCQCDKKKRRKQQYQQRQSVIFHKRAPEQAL

Histamine H4 receptor = Histamine H4 receptor (Homo sapiens, UniProt Q9H3N8)

CCCN(CC[C@]1(O)C[C@H](NC(=O)c2ccc3ccccc3c2)C1)[C@H]1CCc2nc(N)sc2C1
Ki [1]: Not Active | inhibition at […], 10 µM (GABA PBR): < 50% | Activity (D(2) dopamine receptor [2]): Active | Ki [3]: Not Active | Ki (D(4) dopamine receptor [4]): 0.045 µM | Activity [5]: Active | Activity (D(4) dopamine receptor [6]): Active | inhibition at […], 10 µM (GABA(A)/BzR site): < 50% | Activity (D(2) dopamine receptor [7]): Active

CCCN[C@H]1CCc2nc(N)sc2C1 [PRAMIPEXOLE]
Ki [8]: > 10 µM | Ki [9]: > 10 µM | Ki [10]: > 10 µM | Ki [11]: > 10 µM | Ki [12]: > 10 µM | Ki [13]: > 10 µM | Ki [14]: > 10 µM | Ki [15]: 3.51 µM | Ki [16]: 4.45 µM | Ki [17]: 0.0522 µM | Ki [18]: > 10 µM | Ki [19]: > 10 µM | Ki [20]: > 10 µM | Ki (D(1B) dopamine receptor): > 10 µM | inhibition at […], 10 µM [21]: > 50% | Ki [22]: > 10 µM | Ki [23]: > 10 µM | Ki (Histamine H4 receptor): > 10 µM
